Measured values from patent US11655235B2, “Pyrrolidine and piperidine compounds” (YUHAN CORPORATION, priority 2019, dated 2023).
Like-named read-outs stand apart in the source and are kept apart here.

Key:
Assay type in all cases: biochemical
Recombinant human FAP = molecular target: T1, Recombinant human FAP (Homo sapiens, UniProt Q12884); test: FAP inhibition, fluorogenic substrate Z-Gly-Pro-AMC
T1 construct: purchased R&D systems
T1 sequence (Q12884 1-760): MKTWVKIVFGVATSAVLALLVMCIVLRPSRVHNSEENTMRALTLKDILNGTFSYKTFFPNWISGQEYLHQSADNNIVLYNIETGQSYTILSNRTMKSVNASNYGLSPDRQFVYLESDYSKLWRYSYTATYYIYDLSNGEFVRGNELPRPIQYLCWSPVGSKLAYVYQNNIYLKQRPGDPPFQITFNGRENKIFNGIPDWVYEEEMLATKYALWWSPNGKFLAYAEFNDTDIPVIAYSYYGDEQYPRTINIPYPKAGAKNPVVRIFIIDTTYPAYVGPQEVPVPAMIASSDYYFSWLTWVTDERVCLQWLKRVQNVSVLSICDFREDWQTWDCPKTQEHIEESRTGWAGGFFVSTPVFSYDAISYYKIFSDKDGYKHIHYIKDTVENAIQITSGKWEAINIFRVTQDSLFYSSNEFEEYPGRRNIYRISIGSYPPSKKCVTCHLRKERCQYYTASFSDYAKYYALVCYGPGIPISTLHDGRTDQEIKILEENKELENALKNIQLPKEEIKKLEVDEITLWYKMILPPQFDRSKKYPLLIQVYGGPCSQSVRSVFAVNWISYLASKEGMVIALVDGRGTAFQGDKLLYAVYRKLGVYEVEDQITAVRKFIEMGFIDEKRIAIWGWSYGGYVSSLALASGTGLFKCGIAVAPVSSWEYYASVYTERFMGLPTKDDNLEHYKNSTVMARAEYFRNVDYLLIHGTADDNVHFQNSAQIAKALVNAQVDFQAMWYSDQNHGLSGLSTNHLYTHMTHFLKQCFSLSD
Procedure, shortened: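 Eight-point compound dilutions (≤0.1% DMSO) were incubated at 25° C with 10 ng recombinant human FAP in Tris pH 7.5/1 M NaCl/BSA buffer and Z-Gly-Pro-AMC. Inhibition was taken as % drop in fluorescence rate (380/460 nm) against uninhibited control; IC50 came from a four-parameter logistic fit.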

recombinant human DPP7 = molecular target: T2, recombinant human DPP7 (Homo sapiens, UniProt Q9UHL4); test: DPP7 inhibition, fluorogenic substrate Lys-Pro-AMC
T2 construct: purchased R&D Systems
Procedure, shortened: (§1)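 Inhibitors are titrated in an 8-point series into the enzyme's assay buffer (DMSO no more than 0.5%). Substrate cleavage at 25 °C is followed by fluorescence, excitation 380 nm and emission 460 nm. IC50 values come from a four-variable logistic model.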

recombinant human DPP8 = molecular target: T3, recombinant human DPP8 (Homo sapiens, UniProt Q6V1X1); test: DPP8 inhibition, fluorogenic substrate Z-Ala-Pro-AMC
T3 construct: purchased PBS Bioscience
Procedure, shortened: as §1

recombinant human DPP9 = molecular target: T4, recombinant human DPP9 (Homo sapiens, UniProt Q86TI2); test: DPP9 inhibition, fluorogenic substrate H-Gly-Pro-AMC
T4 construct: purchased R&D Systems
Procedure, shortened: as §1

recombinant human PREP = molecular target: T5, recombinant human PREP (Homo sapiens, UniProt P48147); test: PREP inhibition, fluorogenic substrate Z-Gly-Pro-AMC; conditions: Inhibitory Activity (IC50, nM) PREP
T5 construct: purchased R&D System
T5 sequence (P48147 1-710): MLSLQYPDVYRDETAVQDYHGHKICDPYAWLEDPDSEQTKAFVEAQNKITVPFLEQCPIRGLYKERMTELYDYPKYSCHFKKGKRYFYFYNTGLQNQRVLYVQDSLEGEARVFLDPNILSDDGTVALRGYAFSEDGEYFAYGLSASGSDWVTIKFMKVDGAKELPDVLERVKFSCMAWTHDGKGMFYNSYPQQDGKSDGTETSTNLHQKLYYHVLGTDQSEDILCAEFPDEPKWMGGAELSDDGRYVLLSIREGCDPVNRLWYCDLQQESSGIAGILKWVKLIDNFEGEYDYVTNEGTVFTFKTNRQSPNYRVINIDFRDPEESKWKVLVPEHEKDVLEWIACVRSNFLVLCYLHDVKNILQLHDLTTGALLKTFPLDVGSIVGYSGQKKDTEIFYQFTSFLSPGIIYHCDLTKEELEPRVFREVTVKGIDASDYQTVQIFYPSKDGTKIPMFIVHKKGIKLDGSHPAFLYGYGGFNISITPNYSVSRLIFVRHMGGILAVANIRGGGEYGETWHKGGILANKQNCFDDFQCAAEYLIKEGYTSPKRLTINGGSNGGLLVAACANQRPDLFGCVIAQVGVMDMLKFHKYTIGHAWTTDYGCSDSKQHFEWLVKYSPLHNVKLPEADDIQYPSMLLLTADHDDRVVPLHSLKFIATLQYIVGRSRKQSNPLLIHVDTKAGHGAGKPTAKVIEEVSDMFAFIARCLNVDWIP
Procedure, shortened: as §1

DPP4 = DPP4 (Homo sapiens, UniProt P27487); test: DPP4 inhibition, fluorogenic substrate H-Gly-Pro-AMC; parameters: purchased R&D Systems; conditions: for inhibition at 1 µM: read-out: hDPP4 inhibition % at 1 μM
[1] = recombinant human FAP, substrate Z-Gly-Pro-AMC
[2] = 25° C., Z-Gly-Pro-AMC substrate
[3] = 25° C., Z-Ala-Pro-AMC substrate
[4] = 25° C., H-Gly-Pro-AMC substrate

T3 sequence (Q6V1X1 whole entry): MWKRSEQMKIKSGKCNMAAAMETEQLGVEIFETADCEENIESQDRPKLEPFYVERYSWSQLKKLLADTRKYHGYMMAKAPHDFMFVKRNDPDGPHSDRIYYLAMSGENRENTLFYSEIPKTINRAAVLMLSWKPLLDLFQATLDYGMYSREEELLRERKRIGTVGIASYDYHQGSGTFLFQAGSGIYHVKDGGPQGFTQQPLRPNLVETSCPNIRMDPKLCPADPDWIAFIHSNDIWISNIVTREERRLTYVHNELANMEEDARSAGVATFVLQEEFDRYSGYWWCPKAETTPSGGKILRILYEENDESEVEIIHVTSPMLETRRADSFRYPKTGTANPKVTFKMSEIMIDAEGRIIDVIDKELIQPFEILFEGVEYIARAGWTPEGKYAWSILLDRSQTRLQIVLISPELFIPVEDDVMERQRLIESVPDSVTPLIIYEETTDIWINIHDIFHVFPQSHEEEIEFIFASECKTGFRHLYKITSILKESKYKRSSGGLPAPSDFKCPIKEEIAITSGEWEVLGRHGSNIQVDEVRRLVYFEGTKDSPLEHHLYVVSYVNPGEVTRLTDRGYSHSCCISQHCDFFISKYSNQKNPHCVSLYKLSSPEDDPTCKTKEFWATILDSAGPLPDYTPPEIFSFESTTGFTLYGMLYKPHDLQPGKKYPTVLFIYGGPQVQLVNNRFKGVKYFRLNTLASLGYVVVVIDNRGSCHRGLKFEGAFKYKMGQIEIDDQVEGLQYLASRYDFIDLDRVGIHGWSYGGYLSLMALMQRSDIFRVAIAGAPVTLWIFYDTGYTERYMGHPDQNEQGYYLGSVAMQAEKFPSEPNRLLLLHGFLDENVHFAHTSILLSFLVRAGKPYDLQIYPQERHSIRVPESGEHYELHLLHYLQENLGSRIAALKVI
T4 sequence (Q86TI2 whole entry): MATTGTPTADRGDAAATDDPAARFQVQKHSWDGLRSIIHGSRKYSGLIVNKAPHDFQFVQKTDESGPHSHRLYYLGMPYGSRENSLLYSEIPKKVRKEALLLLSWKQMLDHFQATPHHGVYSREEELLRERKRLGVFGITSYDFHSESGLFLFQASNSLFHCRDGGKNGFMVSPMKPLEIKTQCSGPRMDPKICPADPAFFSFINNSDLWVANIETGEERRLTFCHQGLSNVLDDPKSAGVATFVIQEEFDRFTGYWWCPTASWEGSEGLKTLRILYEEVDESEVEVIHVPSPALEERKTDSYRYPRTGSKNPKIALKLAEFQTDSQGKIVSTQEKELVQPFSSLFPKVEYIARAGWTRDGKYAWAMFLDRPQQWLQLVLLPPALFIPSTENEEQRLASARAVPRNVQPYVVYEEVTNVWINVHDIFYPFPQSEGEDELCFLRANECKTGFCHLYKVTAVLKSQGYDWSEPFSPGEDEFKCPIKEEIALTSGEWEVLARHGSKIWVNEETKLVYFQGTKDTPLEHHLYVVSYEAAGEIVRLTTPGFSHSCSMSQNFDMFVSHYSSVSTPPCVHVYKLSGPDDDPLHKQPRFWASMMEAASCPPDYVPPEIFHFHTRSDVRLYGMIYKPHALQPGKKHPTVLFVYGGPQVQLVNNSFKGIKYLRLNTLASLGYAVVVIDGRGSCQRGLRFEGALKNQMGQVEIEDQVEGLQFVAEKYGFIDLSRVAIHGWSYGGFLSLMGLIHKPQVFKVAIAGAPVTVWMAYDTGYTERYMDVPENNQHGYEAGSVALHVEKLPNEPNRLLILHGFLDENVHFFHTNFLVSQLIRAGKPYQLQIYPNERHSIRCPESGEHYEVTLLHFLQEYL
DPP4, sequence (P27487 whole entry): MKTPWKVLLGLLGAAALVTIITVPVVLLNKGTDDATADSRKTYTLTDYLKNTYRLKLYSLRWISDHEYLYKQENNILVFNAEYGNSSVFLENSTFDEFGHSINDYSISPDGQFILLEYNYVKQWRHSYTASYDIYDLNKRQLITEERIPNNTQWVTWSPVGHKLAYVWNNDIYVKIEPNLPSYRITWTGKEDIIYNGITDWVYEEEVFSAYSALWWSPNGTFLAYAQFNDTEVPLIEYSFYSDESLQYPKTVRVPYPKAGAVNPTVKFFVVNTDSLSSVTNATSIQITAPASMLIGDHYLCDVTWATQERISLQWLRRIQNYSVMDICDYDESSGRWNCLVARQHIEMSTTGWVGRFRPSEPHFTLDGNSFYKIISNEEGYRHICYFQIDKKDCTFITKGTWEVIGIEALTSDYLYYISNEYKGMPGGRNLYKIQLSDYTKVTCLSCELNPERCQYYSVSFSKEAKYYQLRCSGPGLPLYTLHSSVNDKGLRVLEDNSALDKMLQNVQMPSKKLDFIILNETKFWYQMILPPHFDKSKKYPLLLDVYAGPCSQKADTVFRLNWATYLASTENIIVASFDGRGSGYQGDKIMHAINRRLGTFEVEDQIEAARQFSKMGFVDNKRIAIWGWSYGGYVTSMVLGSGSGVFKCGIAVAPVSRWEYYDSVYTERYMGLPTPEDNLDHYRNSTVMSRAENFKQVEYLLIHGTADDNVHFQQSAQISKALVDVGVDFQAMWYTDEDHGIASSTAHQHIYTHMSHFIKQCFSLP

| SMILES | IC50 (Recombinant human FAP; [1]) | IC50 (recombinant human DPP7; recombinant human DPP7) | IC50 (recombinant human DPP8; recombinant human DPP8) | IC50 (recombinant human DPP9; recombinant human DPP9) | IC50 (recombinant human PREP; recombinant human PREP) | IC50 (DPP4; recombinant human DPP4) | IC50 (Recombinant human FAP; [2]) | IC50 (recombinant human DPP7) | IC50 (recombinant human DPP8; [3]) | IC50 (recombinant human DPP9; [4]) | IC50 (recombinant human PREP; [2]) | IC50 (DPP4; [4]) | inhibition at 1 µM (DPP4) | hDPP4 inhibition % at 1 μM (DPP4; at 1 μM) |
| --- | --- | --- | --- | --- | --- | --- | --- | --- | --- | --- | --- | --- | --- | --- |
| N#C[C@@H]1CCCN1C(=O)CN1CC[C@H](Nc2ccnc3c(C(F)(F)F)cccc23)C1 [Example 270, (2S)-1-[2-[(3S)-3-[[8-(trifluoromethyl)-4-quinolyl]amino]pyrrolidin-1-yl]acetyl]pyrrolidine-2-carbonitrile] | 0.0013 µM | 0.591 µM | 44 µM | 19.2 µM | 10900 nM | > 10 µM |  |  |  |  |  |  |  |  |
| N#C[C@@H]1C[C@H](F)CN1C(=O)CN1CCC(Nc2ccnc3ccc(Cl)cc23)CC1 [Example 338, (2S,4S)-1-[2-[4-[(6-chloro-4-quinolyl)amino]-1-piperidyl]acetyl]-4-fluoro-pyrrolidine-2-carbonitrile] | 0.0065 µM | 0.809 µM | 8.33 µM | 2.94 µM | 1450 nM | 6.89 µM |  |  |  |  |  |  |  |  |
| N#C[C@@H]1CC(F)(F)CN1C(=O)CN1CC[C@H](Oc2cccc3[nH]c(=O)ccc23)C1 [Example 108, (S)-4,4-difluoro-1-(2-((S)-3-((2-oxo-1,2-dihydroquinolin-5-yl)oxy)pyrrolidin-1-yl)acetyl)pyrrolidine-2-carbonitrile] |  |  |  |  |  |  | 0.00215 µM | 0.0076 µM | 6.68 µM | 6.3 µM | 3150 nM | > 1 µM |  |  |
| N#C[C@@H]1CC(F)(F)CN1C(=O)CN1CC[C@H](Oc2ccnc3c(C(F)(F)F)cccc23)C1 [Example 104, (S)-4,4-difluoro-1-(2-((S)-3-((8-(trifluoromethyl)quinolin-4-yl)oxy)pyrrolidin-1-yl)acetyl)pyrrolidine-2-carbonitrile] |  |  |  |  |  |  | 0.00114 µM | 0.0834 µM | 16.2 µM | 22.2 µM | 3080 nM | > 1 µM |  |  |
| CN(c1ccc2cccnc2c1)C1CCN(CC(=O)N2CCC[C@H]2C#N)CC1 [Example 311, (2S)-1-[2-[4-[methyl(7-quinolyl)amino]-1-piperidyl]acetyl]pyrrolidine-2-carbonitrile] | 0.014 µM | 2.49 µM | > 100 µM | 96.9 µM | 4350 nM | > 10 µM |  |  |  |  |  |  |  |  |
| N#C[C@@H]1CC(F)(F)CN1C(=O)CN1CCC(Nc2cccc3ncccc23)CC1 [Example 114, (S)-4,4-difluoro-1-(2-(4-(quinolin-5-ylamino)piperidin-1-yl)acetyl)pyrrolidine-2-carbonitrile] |  |  |  |  |  |  | 0.00094 µM | < 0.03 µM | 1.53 µM | 3.4 µM | 31000 nM |  | 15.7% |  |
| N#C[C@@H]1CC(F)(F)CN1C(=O)CN1CC[C@H](Oc2cccc3ncccc23)C1 [Example 105, (S)-4,4-difluoro-1-(2-((S)-3-(quinolin-5-yloxy)pyrrolidin-1-yl)acetyl)pyrrolidine-2-carbonitrile] |  |  |  |  |  |  | 0.00121 µM | 0.0635 µM | 11.8 µM | 12.5 µM | 5230 nM | > 1 µM |  |  |
| CN(c1cc2ccccc2cn1)C1CCN(CC(=O)N2C[C@@H](F)C[C@H]2C#N)CC1 [Example 317, (2S,4S)-4-fluoro-1-[2-[4-[3-isoquinolyl(methyl)amino]-1-piperidyl]acetyl]pyrrolidine-2-carbonitrile] | 0.0027 µM | 1.85 µM | > 100 µM | 7.07 µM | 299 nM | > 10 µM |  |  |  |  |  |  |  |  |
| N#C[C@@H]1CC(F)(F)CN1C(=O)CN1CC[C@H](Nc2ccnc3ccccc23)C1 [Example 7, (S)-4,4-difluoro-1-(2-((S)-3-(quinolin-4-ylamino)pyrrolidin-1-yl)acetyl)pyrrolidine-2-carbonitrile] |  |  |  |  |  |  | 0.00046 µM | < 0.03 µM | 97.6 µM | 12.8 µM | > 100000 nM | > 1 µM |  |  |
| Cc1cnc2cccc(NC3CCN(CC(=O)N4CCC[C@H]4C#N)CC3)c2c1 [Example 121, (S)-1-(2-(4-((3-methylquinolin-5-yl)amino)piperidin-1-yl)acetyl)pyrrolidine-2-carbonitrile] |  |  |  |  |  |  | 0.00184 µM | 1.74 µM | 48.1 µM | 46.9 µM | 73700 nM | > 10 µM |  |  |
| COc1ccc2nccc(O[C@H]3CCN(CC(=O)N4CC(F)(F)C[C@H]4C#N)C3)c2c1 [Example 103, (S)-4,4-difluoro-1-(2-((S)-3-((6-methoxyquinolin-4-yl)oxy)pyrrolidin-1-yl)acetyl)pyrrolidine-2-carbonitrile] |  |  |  |  |  |  | 0.00068 µM | 0.174 µM | 7.68 µM | 4.75 µM | 5670 nM | > 1 µM |  |  |
| N#C[C@@H]1C[C@H](F)CN1C(=O)CN1CC[C@H](NC(=O)c2coc3cc(F)ccc23)C1 [Example 29, N—((S)-1-(2-((2S,4S)-2-cyano-4-fluoropyrrolidin-1-yl)-2-oxoethyl)pyrrolidin-3-yl)-6-fluorobenzofuran-3-carboxamide] |  |  |  |  |  |  | 0.00622 µM | 0.728 µM | 28.7 µM | 17.5 µM | 6170 nM | > 100 µM |  |  |
| Cc1ccc(N[C@H]2CCN(CC(=O)N3C[C@@H](F)C[C@H]3C#N)C2)c2cccnc12 [Example 262, (2S,4S)-4-fluoro-1-[2-[(3S)-3-[(8-methyl-5-quinolyl)amino]pyrrolidin-1-yl]acetyl]pyrrolidine-2-carbonitrile] | 0.0012 µM | 0.452 µM | 3.01 µM | 3.56 µM | 1850 nM | 1.36 µM |  |  |  |  |  |  |  |  |
| N#C[C@@H]1CCCN1C(=O)CN1CCC(Oc2cccc3ncccc23)CC1 [Example 119, (S)-1-(2-(4-(quinolin-5-yloxy)piperidin-1-yl)acetyl)pyrrolidine-2-carbonitrile] |  |  |  |  |  |  | 0.00145 µM | 2.35 µM | 60.4 µM | > 100 µM | 3760 nM |  |  | No inhibition** |
| N#C[C@@H]1CCCN1C(=O)CN1CC[C@H](Nc2cccc3ncc(Cl)cc23)C1 [Example 235, (2S)-1-[2-[(3S)-3-[(3-chloro-5-quinolyl)amino]pyrrolidin-1-yl]acetyl]pyrrolidine-2-carbonitrile] | 0.0007 µM | 2.79 µM | 23.4 µM | 17.6 µM | 8460 nM | > 10 µM |  |  |  |  |  |  |  |  |
| N#C[C@@H]1CCCN1C(=O)CN1CC[C@H](NC(=O)c2coc3c(F)cc(F)cc23)C1 [Example 51, N—((S)-1-(2-((S)-2-cyanopyrrolidin-1-yl)-2-oxoethyl)pyrrolidin-3-yl)-5,7-difluorobenzofuran-3-carboxamide] |  |  |  |  |  |  | 0.0109 µM | 3.32 µM | 38.9 µM | > 100 µM | 13400 nM |  | 0.6% |  |
